Experimental data: patent US12258338B2, “Modulators of the integrated stress response pathway” (EVOTEC INTERNATIONAL GMBH, priority 2019, dated 2025)
Values after ≈ are worked out from the molar mass of the structure shown. Read-outs that look alike come from different tables or passages of the source.

Key:
[1] = Thermodynamic (Equilibrium) solubility in selected buffer; format: physicochemical; conditions: aqueous buffer, thermodynamic from solid, Table 25
Experimental: Protocol—Thermodynamic (Equilibrium) Solubility in Selected Buffer
Example compounds were tested in the Thermodynamic (Equilibrium) solubility in selected buffer assay. The test compound, in powder form, was weighted into a 4 mL glass vial and a calculated volume of selected medium was added to reach the target concentration of the solubility test (1 mg/mL). The solution was then stirred overnight at r.t. protected from the light. The solution was filtered through a 0.45 μm PTFE membrane at ambient temperature. An aliquot of the resulting filtrate was quantified using UPLC-UV method described below against a reference solution of the test compound, 0.8 mg/mL in DMSO. Media compositions: Phosphate buffer 50 mM (pH=2.0) […] of NaH2PO4, H2O in 200 mL of ultrapurified water adjusted at pH 2 with phosphoric acid 85%; Acetate buffer 50 mM (pH=5.5) 820 mg of anhydrous sodium acetate in 200 mL of ultrapurified water adjusted at pH 5.5 with acetic acid 99.8%; Phosphate buffer 50 mM (pH=7.4) 40.5 mL of Na2HPO4 0.1 M solution+9.5 mL of NaH2PO4 0.1 M solution. Analytical conditions: UPLC-UV-MS analyses were performed with a Waters Acquity UPLC HClass-PDA-QDa system using a reverse phase Acquity BEH C18 column (2.1 mm×50 mm, 1.7 μm; temperature: 40° C.) and a gradient of 10-95% B (A=0.1% formic acid in H2O; B=0.05% formic acid in ACN) over 1.8 min then 100% B for 0.8 min, with an injection volume of 0.4 μL at flow rate of 0.65 mL/min. UV chromatograms were recorded at 220 nm, 254 nm and 290 nm using a photo diode array detector. Mass spectra were recorded in the 150 to 900 M/Z range at a sampling rate of 10 scans per sec using a QDa detector. Data were integrated using Empower®3 software. Data Analysis: Equilibrium solubility of the test compound in the selected medium was calculated through the ratio of the surface area of the UV chromatographic peak of the compound in the filtrate to the surface of the UV chromatographic peak of the compound in the reference solution.

[2] = molecular target: T1, human ERG potassium channel (hERG) (Homo sapiens, UniProt Q12809); test: hERG channel tail current recording using in vitro Rapid ICE (automated patch-clamp, QPatch HTX); format: cell-based; conditions: Table 26
T1 construct: expressed in transfected cells; host or cells: HEK293, stably transfected, tetracycline-inducible promoter
Experimental: Protocol—Measure of the Effect on hERG Channel by Tail Current Recording Using In Vitro Rapid ICE
The potency of the example compounds in inhibiting human ERG potassium channel (hERG) tail current was assessed in a recombinant HEK293 cell line stably transfected with hERG cDNA under an inducible promoter, using Rapid ICE (rapid ion channel electrophysiology) assay. Rapid ICE is an automated patch-clamp assay utilizing the QPatch HTX system (Sophion Bioscience A/S). Briefly, inducible HEK hERG cells were cultivated in minimum essential medium supplemented with 10% FBS, 1% non-essential amino acids, 1% sodium pyruvate, 2 mM 1-glutamine, 15 μg/mL blasticidin, and 100 μg/mL hygromycin. hERG channel expression induction was obtained by adding 10 μg/mL tetracycline for 24, 48, or 72 h before recordings.
On the day of the experiment, cells were detached with TrypLE and prepared to be loaded on the instrument. Cells were resuspended in 7 mL of Serum-Free Media containing 25 mM Hepes and soybean trypsin inhibitor and immediately placed in the cell storage tank of the machine. The composition of the extracellular buffer was (mM): NaCl 137, KCl 4, CaCl2 1.8, MgCl2 1.0, d-glucose 10, N-2-hydroxyethylpiperazine-N′-2-ethanesulfonic acid (HEPES) 10, pH 7.4 with 1 M NaOH. The composition of the intracellular solution was (mM): KCl 130, MgCl2 1.0, ethylene glycol-bis(β-aminoethyl ether)-N,N,N′,N′-tetraacetic acid (EGTA) 5, MgATP 5, HEPES 10, pH 7.2 with 1 M KOH. The voltage protocol included the following steps: step from −80 to −50 mV for 200 ms, +20 mV for 4.8 s, step to −50 mV for 5 s, then step to the holding potential of −80 mV. Compounds were dissolved in DMSO and diluted in extracellular buffer to achieve final test concentrations (0.3, 3, and 30 μM) in 0.3% DMSO. The voltage protocol was run and recorded continuously during the experiment. The vehicle, corresponding to 0.3% DMSO in extracellular buffer was then applied for 3 min, followed by the test substance in triplicate. The standard combined exposure time was 5 min. The average of tail current amplitude values recorded from four sequential voltage pulses was used to calculate for each cell the effect of the test substance by calculating the residual current (% control) compared with vehicle pretreatment. Data were reported as % inhibition for each concentration tested, and IC50 values were estimated using QPatch software. At least two cells were tested, and even more if results diverged.

ATF4 = test: HEK-ATF4 High Content Imaging assay (prevention of Tunicamycin induced ISR; ATF4 signal ratio between nucleus and cytoplasm); format: cell-based; conditions: Homo sapiens; Wild-type HEK293 cells, Tunicamycin induced ISR, 6 h; read-out: IIEK-ATF4 Activity
Outline: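 Wild-type HEK293 cells in 0.3% FBS medium were co-treated with compounds and Tunicamycin (3.3 μM in prediluted medium, 11-fold over final) for 6 h at 37 °C. Fixed cells were immunostained for ATF4 with Hoechst nuclei; imaging gave nuclear/cytoplasmic ATF4 ratio, with nuclei counts as toxicity control.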

[3] = acetate buffer 50 mM, pH 5.5, read-out: Solubility (μg/mL) pH 5.5
[4] = phosphate buffer 50 mM, pH 2.0, read-out: Solubility (μg/mL) pH 2.0
[5] = phosphate buffer 50 mM, pH 7.4, read-out: Solubility (μg/mL) pH 7.4

T1 sequence (Q12809 whole entry): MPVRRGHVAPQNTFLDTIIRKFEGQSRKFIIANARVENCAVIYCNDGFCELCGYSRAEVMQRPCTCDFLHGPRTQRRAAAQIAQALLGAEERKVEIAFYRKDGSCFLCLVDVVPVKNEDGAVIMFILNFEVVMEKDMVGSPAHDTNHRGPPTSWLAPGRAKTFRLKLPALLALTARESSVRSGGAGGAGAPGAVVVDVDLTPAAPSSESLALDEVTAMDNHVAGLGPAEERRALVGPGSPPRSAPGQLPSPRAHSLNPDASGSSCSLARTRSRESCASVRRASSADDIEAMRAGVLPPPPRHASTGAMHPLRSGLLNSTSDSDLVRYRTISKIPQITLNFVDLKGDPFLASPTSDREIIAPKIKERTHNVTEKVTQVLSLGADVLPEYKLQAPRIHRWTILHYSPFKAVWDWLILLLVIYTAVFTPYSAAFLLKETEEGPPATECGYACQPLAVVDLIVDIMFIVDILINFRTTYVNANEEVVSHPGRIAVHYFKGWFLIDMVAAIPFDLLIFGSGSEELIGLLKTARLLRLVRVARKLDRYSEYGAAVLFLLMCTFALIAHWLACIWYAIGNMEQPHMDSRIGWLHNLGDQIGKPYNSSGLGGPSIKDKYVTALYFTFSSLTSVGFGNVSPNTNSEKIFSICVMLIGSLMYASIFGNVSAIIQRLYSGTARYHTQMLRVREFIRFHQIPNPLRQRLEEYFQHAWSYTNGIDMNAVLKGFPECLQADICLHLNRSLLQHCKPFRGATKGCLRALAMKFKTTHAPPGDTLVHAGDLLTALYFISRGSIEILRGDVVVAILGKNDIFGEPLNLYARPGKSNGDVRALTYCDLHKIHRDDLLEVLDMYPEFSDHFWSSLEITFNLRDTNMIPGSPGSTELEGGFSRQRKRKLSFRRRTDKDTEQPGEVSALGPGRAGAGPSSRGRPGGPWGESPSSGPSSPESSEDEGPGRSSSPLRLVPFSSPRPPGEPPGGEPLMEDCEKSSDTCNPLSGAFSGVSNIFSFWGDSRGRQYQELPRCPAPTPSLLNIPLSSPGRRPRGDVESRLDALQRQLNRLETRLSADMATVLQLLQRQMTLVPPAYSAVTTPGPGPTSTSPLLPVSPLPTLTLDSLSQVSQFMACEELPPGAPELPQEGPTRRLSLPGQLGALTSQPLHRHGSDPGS

Row | solubility [1, 3] | solubility [1, 4] | solubility [1, 5] | IC50 (ATF4) | SMILES | IC50 [2]
1 | 168 µg/mL (≈ 354 µM) | 909 µg/mL (≈ 1910 µM) | 102 µg/mL (≈ 215 µM) | 2 to 15 µM | O=C(COc1ccc(Cl)c(F)c1)N[C@H]1CC[C@H](c2nnc(OC3CCC(F)(F)C3)o2)NC1 (stereo partly drawn) [Example 68, 2-(4-chloro-3-fluorophenoxy)-N-[(3S,6R)-6-{5-[(3,3-difluorocyclopentyl)oxy]-1,3,4-oxadiazol-2-yl}piperidin-3-yl]acetamide] | 1 to 5 µM
2 | 26 µg/mL (≈ 55.9 µM) | 713 µg/mL (≈ 1530 µM) | 22 µg/mL (≈ 47.3 µM) | 0.001 to 0.5 µM | O=C(COc1ccc(Cl)c(F)c1)N[C@H]1CC[C@H](c2nnc(OCCOC(F)F)o2)NC1 [Example 75, 2-(4-chloro-3-fluorophenoxy)-N-[(3S,6R)-6-{5-[2-(difluoromethoxy)ethoxy]-1,3,4-oxadiazol-2-yl}piperidin-3-yl]acetamide] | 1 to 5 µM
3 |  |  |  | 0.5 to 2 µM | O=C(COc1ccc(Cl)c(F)c1)N[C@H]1CC[C@H](c2nnc(OCCO[C@@H]3CC3(F)F)o2)NC1 (single isomer, unassigned) [Example 102] | 1 to 5 µM
4 |  |  |  | 0.001 to 0.5 µM | O=C(COc1ccc(Cl)c(F)c1)N[C@H]1CC[C@H](c2nnc(OCCOC3CC3(F)F)o2)NC1 (stereo partly drawn) [Example 87, 2-(4-chloro-3-fluorophenoxy)-N-[(3S,6R)-6-{5-[2-(2,2-difluorocyclopropoxy)ethoxy]-1,3,4-oxadiazol-2-yl}piperidin-3-yl]acetamide] | 1 to 5 µM
5 |  |  |  | 2 to 15 µM | O=C(COc1ccc(Cl)c(F)c1)N[C@@H]1CN[C@@H](c2nnc(-c3ccc(Cl)cc3)o2)C1 [Example 31, 2-(4-chloro-3-fluorophenoxy)-N-[(3S,5R)-5-[5-(4-chlorophenyl)-1,3,4-oxadiazol-2-yl]pyrrolidin-3-yl]acetamide] | 0.001 to 1 µM
6 |  |  |  | 0.001 to 0.5 µM | O=C(COc1ccc(Cl)c(F)c1)N[C@H]1CC[C@H](c2nnc(N3CC(OC(F)(F)F)C3)o2)NC1 [Example 91, 2-(4-chloro-3-fluorophenoxy)-N-[(3S,6R)-6-{5-[3-(trifluoromethoxy)azetidin-1-yl]-1,3,4-oxadiazol-2-yl}piperidin-3-yl]acetamide] | 1 to 5 µM
7 |  |  |  | 0.001 to 0.5 µM | CCN1C[C@H](NC(=O)COc2ccc(Cl)c(F)c2)CC[C@H]1c1nnc(-c2ccc(Cl)cc2)o1 [Example 47, 2-(4-chloro-3-fluorophenoxy)-N-[(3R,6S)-6-[5-(4-chlorophenyl)-1,3,4-oxadiazol-2-yl]-1-ethylpiperidin-3-yl]acetamide] | 0.001 to 1 µM
8 |  |  |  | 0.001 to 0.5 µM | O=C(COc1ccc(Cl)c(Cl)c1)N[C@H]1CC[C@H](c2nnc([C@H]3C[C@@H](OC(F)(F)F)C3)o2)NC1 [Example 9, 2-(3,4-dichlorophenoxy)-N-[(3S,6R)-6-{5-[(1s,3s)-3-(trifluoromethoxy)cyclobutyl]-1,3,4-oxadiazol-2-yl}piperidin-3-yl]acetamide] | 1 to 5 µM
9 |  |  |  | 2 to 15 µM | COCCCOc1nnc([C@H]2CC[C@H](NC(=O)COc3ccc(Cl)c(F)c3)CN2)o1 [Example 79, 2-(4-chloro-3-fluorophenoxy)-N-[(3S,6R)-6-[5-(3-methoxypropoxy)-1,3,4-oxadiazol-2-yl]piperidin-3-yl]acetamide] | > 5 µM
10 |  |  |  | 0.5 to 2 µM | O=C(COc1ccc(Cl)c(F)c1)N[C@H]1CC[C@H](c2nnc(OCC3CC3(F)F)o2)NC1 (stereo partly drawn) [Example 66, 2-(4-chloro-3-fluorophenoxy)-N-[(3S,6R)-6-{5-[(2,2-difluorocyclopropyl)methoxy]-1,3,4-oxadiazol-2-yl}piperidin-3-yl]acetamide] | 1 to 5 µM
11 |  |  |  | 2 to 15 µM | O=C(COc1ccc(Cl)c(F)c1)N[C@@H]1CC[C@H](c2nnc([C@H]3C[C@@H](OC(F)(F)F)C3)o2)NC1=O (racemic) [Example 38, rac-2-(4-chloro-3-fluorophenoxy)-N-[(3R,6R)-2-oxo-6-{5-[(1s,3s)-3-(trifluoromethoxy)cyclobutyl]-1,3,4-oxadiazol-2-yl}piperidin-3-yl]acetamide] | > 5 µM
12 |  |  |  | 0.001 to 0.5 µM | O=C(COc1ccc(Cl)c(F)c1)N[C@H]1CC[C@H](c2nnc(CCCOC(F)(F)F)o2)NC1 [Example 55, 2-(4-chloro-3-fluorophenoxy)-N-[(3S,6R)-6-{5-[3-(trifluoromethoxy)propyl]-1,3,4-oxadiazol-2-yl}piperidin-3-yl]acetamide] | > 5 µM
13 |  |  |  | 0.001 to 0.5 µM | O=C(COc1ccc(Cl)c(F)c1)N[C@H]1CC[C@H](c2nnc(-c3ccc(C(F)(F)F)cc3)o2)NC1 [Example 2, 2-(4-chloro-3-fluorophenoxy)-N-[(3S,6R)-6-{5-[4-(trifluoromethyl)phenyl]-1,3,4-oxadiazol-2-yl}piperidin-3-yl]acetamide] | 0.001 to 1 µM
14 |  |  |  | 0.001 to 0.5 µM | O=C(COc1cnc(Cl)c(F)c1)N[C@H]1CC[C@H](c2nnc(-c3ccc(Cl)c(Cl)c3)o2)NC1 [Example 100, 2-[(6-chloro-5-fluoropyridin-3-yl)oxy]-N-[(3S,6R)-6-[5-(3,4-dichlorophenyl)-1,3,4-oxadiazol-2-yl]piperidin-3-yl]acetamide] | 1 to 5 µM
15 |  |  |  | 0.001 to 0.5 µM | O=C(COc1cnc(Cl)c(F)c1)N[C@H]1CC[C@H](c2nnc(-c3ccc(Cl)cc3)o2)NC1 [Example 7, 2-[(6-chloro-5-fluoropyridin-3-yl)oxy]-N-[(3S,6R)-6-[5-(4-chlorophenyl)-1,3,4-oxadiazol-2-yl]piperidin-3-yl]acetamide] | 0.001 to 1 µM
16 |  |  |  | 0.001 to 0.5 µM | O=C(COc1ccc(Cl)c(F)c1)N[C@@H]1CC[C@@H](c2nnc(OCCOC(F)(F)F)o2)NC1 [Example 83, 2-(4-chloro-3-fluorophenoxy)-N-[(3R,6S)-6-{5-[2-(trifluoromethoxy)ethoxy]-1,3,4-oxadiazol-2-yl}piperidin-3-yl]acetamide] | > 5 µM
17 |  |  |  | 0.001 to 0.5 µM | O=C(COc1ccc(C(F)(F)F)c(Cl)c1)N[C@H]1CC[C@H](c2nnc([C@H]3C[C@@H](OC(F)(F)F)C3)o2)NC1 [Example 10, 2-[3-chloro-4-(trifluoromethyl)phenoxy]-N-[(3S,6R)-6-{5-[(1s,3s)-3-(trifluoromethoxy)cyclobutyl]-1,3,4-oxadiazol-2-yl}piperidin-3-yl]acetamide] | 1 to 5 µM

Row | SMILES | solubility [1, 3] | solubility [1, 4] | solubility [1, 5] | IC50 (ATF4) | IC50 [2]
18 | CC(C)CCOc1nnc([C@H]2CC[C@H](NC(=O)COc3ccc(Cl)c(F)c3)CN2)o1 [Example 70, 2-(4-chloro-3-fluorophenoxy)-N-[(3S,6R)-6-[5-(3-methylbutoxy)-1,3,4-oxadiazol-2-yl]piperidin-3-yl]acetamide] |  |  |  | 0.001 to 0.5 µM | 1 to 5 µM
